These results are taken from patent US20050197350A1, “Novel quinoline, tetrahydroquinazoline, and pyrimidine derivatives and methods of treatment related to the use thereof” (TAISHO PHARMACEUTICAL CO., LTD., priority 2003, published 2005).

The target of the experiment is MCH receptor (Homo sapiens, UniProt Q99705). Nature of the experiment: High throughput functional screening FLIPR/FDSS6000 (intracellular Ca2+ evoked by MCH). Particulars: FLIPR/FDSS, antagonist activity vs 50 nM MCH, class by percent of control at 10^−7 M or IC50, read-out: class. It is filed as cell-based. A digest of the protocol: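 For antagonist testing, compound-treated cells (30 min, 37 °C) were stimulated with 50 nM MCH and intracellular Ca2+ followed by Fluo4 fluorescence on FLIPR/FDSS6000. Receptor was a constitutively active, non-endogenous MCH receptor; dye loading 4 μM Fluo4-AM, 1 h, 37 °C.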

Structures can show the parent of a compound that is named as a salt. Where two headings read alike, the source gives them in different places.

Turning to `CNc1nc(N[C@H]2CC[C@@H](NC(=O)COc3cc(C(F)(F)F)n(C)n3)CC2)ncc1C` [Example 3364, N-(cis-4-{[5-methyl-4-(methylamino)pyrimidin-2-yl]amino}-cyclohexyl)-2-{[1-methyl-5-(trifluoromethyl)-1H-pyrazol-3-yl]oxy}acetamide], the IC50 is more than 200 nM.

As to `Cc1cc(N[C@H]2CC[C@@H](NC(=O)c3ccc(C(F)(F)F)nc3)CC2)nc2ccccc12` [Example 3186, N-[cis-4-(4-Methyl-quinolin-2-ylamino)-cyclohexyl]-6-trifluoromethyl-nicotinamide hydrochloride], under “table after the classification”, the IC50 was 50 to 200 nM.

On to `CN(C)c1ccnc(N[C@H]2CC[C@@H](CNC(=O)c3ccc(F)c(F)c3)CC2)n1` [Example 3219, N-[cis-4-(4-Dimethylamino-pyrimidin-2-ylamino)-cyclohexylmethyl]-3,4-difluoro-benzamide hydrochloride], for which, under “table after the classification”, the IC50 lay in the range of 50 to 200 nM.

For the compound `CCN(C(=O)N[C@H]1CC[C@@H](Nc2ncc(C)c(N(C)C)n2)CC1)c1ccc(OC(F)(F)F)cc1` [Example 3351, N′-(cis-4-{[4-(dimethylamino)-5-methylpyrimidin-2-yl]amino}cyclohexyl)-N-ethyl-N-[4-(trifluoromethoxy)-phenyl]urea], the IC50 was less than 50 nM.

On to `Cc1cc(N[C@H]2CC[C@@H](NC(=O)c3c(F)cccc3F)CC2)nc2ccccc12` [Example 3165, 2,6-Difluoro-N-[cis-4-(4-methylquinolin-2-ylamino)-cyclohexyl]-benzamide hydrochloride], for which the IC50 (table after the classification) was 50 to 200 nM.

With `Cc1cc(N(C)C)nc(N[C@H]2CC[C@@H](NC(=O)c3cccnc3S(=O)(=O)c3cccc(Br)c3)CC2)n1` [Example 3373, 2-[(3-bromophenyl)sulfonyl]-N-(cis-4-{[4-(dimethylamino)-6-methylpyrimidin-2-yl]amino}cyclohexyl)nicotinamide], the IC50 fell in the range of 50 to 200 nM.

On to `Cc1cc(N[C@H]2CC[C@@H](NC(=O)c3cc(C(F)(F)F)cc(C(F)(F)F)c3)CC2)nc2ccccc12` [Example 3157, N-[cis-4-(4-Methyl-quinolin-2-ylamino)-cyclohexyl]-3,5-bis-trifluoromethyl-benzamide hydrochloride], for which the IC50 (table after the classification) fell in the range of 50 to 200 nM.

As to `Cc1cc(N[C@H]2CC[C@@H](CNC(=O)Nc3cccc(Cl)c3Cl)CC2)nc2ccccc12` [Example 3106, 1-(2,3-Dichloro-phenyl)-3-[cis-4-(4-methyl-quinolin-2-ylamino)-cyclohexylmethyl]-urea hydrochloride], the IC50 (table after the classification) was less than 50 nM.

For the compound `CN(C)c1ccnc(N[C@H]2CC[C@@H](CNC(=O)C3c4ccccc4Oc4ccccc43)CC2)n1` [Example 3221, 9H-Xanthene-9-carboxylic acid [cis-4-(4-dimethylamino-pyrimidin-2-ylamino)-cyclohexylmethyl]-amide hydrochloride], the IC50 (table after the classification) is less than 50 nM.

Turning to `Cc1cc(C(=O)N[C@H]2CC[C@@H](Nc3cc(C)c4ccccc4n3)CC2)ccc1F` [Example 3080, 4-Fluoro-3-methyl-N-[cis-4-(4-methyl-quinolin-2-ylamino)-cyclohexyl]-benzamide hydrochloride], the IC50 (table after the classification) was less than 50 nM.

`O=C(N[C@H]1CC[C@@H](Nc2ccc3ccccc3n2)CC1)c1cccc(Cl)c1` [Example 3035, 3-Chloro-N-[cis-4-(quinolin-2-ylamino)-cyclohexyl]-benzamide hydrochloride]: the IC50 (table after the classification) was less than 50 nM.

As for `Cc1cc(N[C@H]2CC[C@@H](C(=O)N[C@H](C)c3ccccc3C(F)(F)F)CC2)nc2ccccc12` [Example 3313, cis-4-[(4-methylquinolin-2-yl)amino]-N-{(1R)-1-[2-(trifluoromethyl)phenyl]ethyl}cyclohexanecarboxamide], the IC50 was 50 to 200 nM.

For the compound `CN(C)c1nc(N[C@H]2CC[C@@H](NC(=O)c3cccc([N+](=O)[O-])c3)CC2)nc2c1CCCC2` [Example 3112, N-[cis-4-(4-Dimethylamino-5,6,7,8-tetrahydro-quinazolin-2-ylamino)-cyclohexyl]-3-nitro-benzamide hydrochloride], the IC50 (table after the classification) is less than 50 nM.

Regarding `COc1ccnc(N[C@H]2CC[C@@H](NC(=O)c3cccnc3Oc3ccccc3)CC2)n1` [Example 3134, N-[cis-4-(4-Methoxy-pyrimidin-2-ylamino)-cyclohexyl]-2-phenoxy-nicotinamide hydrochloride], the IC50 (table after the classification) was more than 200 nM.

Turning to `Cc1cnc(N[C@H]2CC[C@@H](NC(=O)c3cccnc3S(=O)(=O)c3ccc(Br)cc3)CC2)nc1N(C)C` [Example 3289, 2-[(4-bromophenyl)sulfonyl]-N-(cis-4-{[4-(dimethylamino)-5-methylpyrimidin-2-yl]amino}cyclohexyl)nicotinamide], the IC50 lay in the range of 50 to 200 nM.

As to `Cc1cc(N[C@H]2CC[C@@H](NC(=O)c3cccnc3Oc3ccc(F)cc3)CC2)nc2ccccc12` [Example 3090, 2-(4-Fluoro-phenoxy)-N-[cis-4-(4-methyl-quinolin-2-ylamino)-cyclohexyl]-nicotinamide hydrochloride], the IC50 (table after the classification) was less than 50 nM.

`Cc1cnc(N[C@H]2CC[C@@H](C(=O)N[C@@H](C)c3ccc(OC(F)(F)F)cc3)CC2)nc1N(C)C` [Example 3302, cis-4-{[4-(dimethylamino)-5-methylpyrimidin-2-yl]amino}-N-{(1S)-1-[4-(trifluoromethoxy)phenyl]ethyl}-cyclohexanecarboxamide]: the IC50 is less than 50 nM.

For `Cc1cc(N[C@H]2CC[C@@H](NC(=O)c3cncc(Cl)c3)CC2)nc2ccccc12` [Example 3396, 5-Chloro-N-[cis-4-(4-methyl-quinolin-2-ylamino)-cyclohexyl]-nicotinamide], the IC50 (table after the classification) is less than 50 nM.

Take `Cc1cc(N[C@H]2CC[C@@H](NC(=O)c3ccc(Cl)nc3)CC2)nc2ccccc12` [Example 3175, 6-Chloro-N-[cis-4-(4-methyl-quinolin-2-ylamino)-cyclohexyl]-nicotinamide hydrochloride]: the IC50 (table after the classification) was less than 50 nM.

For the compound `O=C(COc1ccc(F)c(Cl)c1)N[C@H]1CC[C@@H](Nc2ccc3ccccc3n2)CC1` [Example 3064, 2-(3-Chloro-4-fluoro-phenoxy)-N-[cis-4-(quinolin-2-ylamino)-cyclohexyl]-acetamide hydrochloride], the IC50 (table after the classification) is less than 50 nM.

Take `Cc1cc(N(C)C)nc(N[C@H]2CC[C@@H](NC(=O)c3cccc(Cl)c3)CC2)n1` [Example 3128, 3-Chloro-N-[cis-4-(4-dimethylamino-6-methyl-pyrimidin-2-ylamino)-cyclohexyl]-benzamide hydrochloride]: where the note is “table after the classification”, the IC50 was less than 50 nM.

For the compound `Cc1cnc(NC2CCC(C(=O)N[C@H](C)c3cccc(C(F)(F)F)c3)CC2)nc1N(C)C` (stereo partly drawn) [Example 3299, 4-{[4-(dimethylamino)-5-methylpyrimidin-2-yl]amino}-N-{(1R)-1-[3-(trifluoromethyl)phenyl]ethyl}cyclohexanecarboxamide], the IC50 was less than 50 nM.

For `COc1cc(OC)cc(C(=O)N[C@H]2CC[C@@H](Nc3nc4c(c(N(C)C)n3)CCCC4)CC2)c1` [Example 3110, N-[cis-4-(4-Dimethylamino-5,6,7,8-tetrahydro-quinazolin-2-ylamino)-cyclohexyl]-3,5-dimethoxy-benzamide hydrochloride], where the note is “table after the classification”, the IC50 was less than 50 nM.

As to `Cc1cc(N[C@H]2CC[C@@H](NC(=O)c3cccnc3)CC2)nc2ccccc12` [Example 3182, N-[cis-4-(4-Methyl-quinolin-2-ylamino)-cyclohexyl]-nicotinamide hydrochloride], for the setting “table after the classification”, the IC50 is more than 200 nM.

On to `O=C(CNc1ccc(Cl)c(Cl)c1)N[C@H]1CC[C@@H](Nc2ccc3ccccc3n2)CC1` [Example 3067, 2-(3,4-Dichloro-phenylamino)-N-[cis-4-(quinolin-2-ylamino)-cyclohexyl]-acetamide dihydrochloride], for which, for the setting “table after the classification”, the IC50 fell in the range of 50 to 200 nM.

Turning to `Cc1cc(N[C@H]2CC[C@@H](NC(=O)c3ccccc3F)CC2)nc2ccccc12` [Example 3171, 2-Fluoro-N-[cis-4-(4-methyl-quinolin-2-ylamino)-cyclohexyl]-benzamide hydrochloride], the IC50 (table after the classification) lay in the range of 50 to 200 nM.

Regarding `Cc1cc(N[C@H]2CC[C@@H](CNC(=O)c3cccnc3Oc3ccccc3)CC2)nc2ccccc12` [Example 3105, N-[cis-4-(4-Methylquinolin-2-ylamino)-cyclohexylmethyl]-2-phenoxy-nicotinamide hydrochloride], the IC50 (table after the classification) was 50 to 200 nM.

On to `Cc1cc(N[C@H]2CC[C@@H](NC(=O)c3cccc(C(F)(F)F)c3)CC2)nc2ccccc12` [Example 3088, N-[cis-4-(4-Methyl-quinolin-2-ylamino)-cyclohexyl]-3-trifluoromethyl-benzamide hydrochloride], for which the IC50 (table after the classification) was less than 50 nM.

Consider `O=C(N[C@H]1CC[C@@H](Nc2ccc3ccccc3n2)CC1)c1cc(C(F)(F)F)cc(C(F)(F)F)c1` [Example 3148, N-[cis-4-(Quinolin-2-ylamino)-cyclohexyl]-3,5-bis-trifluoromethyl-benzamide hydrochloride], for which, for the setting “table after the classification”, the IC50 is more than 200 nM.

In the case of `CN(C)c1ccnc(N[C@H]2CC[C@@H](NC(=O)Nc3cccc(Cl)c3Cl)CC2)n1` [Example 3218, 1-(2,3-Dichloro-phenyl)-3-[cis-4-(4-dimethylamino-pyrimidin-2-ylamino)-cyclohexyl]-urea hydrochloride], the IC50 (table after the classification) is more than 200 nM.

`Cc1cnc(N[C@H]2CC[C@@H](NC(=O)c3cccnc3Oc3ccccc3)CC2)nc1N(C)C` [Example 3120, N-[cis-4-(4-Dimethylamino-5-methyl-pyrimidin-2-ylamino)-cyclohexyl]-2-phenoxy-nicotinamide hydrochloride]: the IC50 (table after the classification) is less than 50 nM.

Regarding `CN(C)c1nc(N[C@H]2CC[C@@H](NC(=O)c3ccc(F)c(Cl)c3)CC2)ncc1F` [Example 3229, 3-Chloro-N-[cis-4-(4-dimethylamino-5-fluoro-pyrimidin-2-ylamino)-cyclohexyl]-4-fluoro-benzamide hydrochloride], the IC50 (table after the classification) was less than 50 nM.
